Test results from patent publication US20150126530A1, “Novel Substituted Imidazopyrimidines as Gpbar1 Receptor Modulators” (Torrent Pharmaceuticals Limited., priority 2011, published 2015).
pEC50: −log10 of the molar value.

Columns and labels:
[1] = test system: DIO mice; test: Efficacy study on repeated dosing in DIO mice; assay type: in vivo; conditions: od; for % Change in body wt from basal: repeated administration
Protocol: (§1) ii) Evaluation of Efficacy of Test Compounds on Repeated Dosing in Diabetic Hamster and DIO Mice. […]
b) Efficacy Study in DIO Mice
Male C57B1/6J mice were made insulin resistant by feeding on High fat diet (45.5% Kcal from Fat, Research Diet) from the age of 6-8 week onwards. After being on High fat diet for 6-8 weeks the animals with similar body weights & fasting plasma glucose were further randomized into treatment groups. Then the animals were treated with compounds 7 to assess the efficacy potential during treatment duration. Effect of treatment on glucose excursion and insulin secretion during OGTT, Fasting Plasma Glucose & Insulin, lipid profile and body weight were evaluated. The compound for enhancing energy expenditure was evaluated by monitoring oxygen consumption (VO2) and carbon dioxide release (VCO2) over 24 hrs period by indirect calorimetry (Oxymax System, Columbus Instruments).
Similarly, the study was conducted in DIO mice with compound no 50 of the present invention.

[2] = test system: Diabetic Hamster; test: Efficacy study on repeated dosing in diabetic hamster; assay type: in vivo; conditions: for HOMA-IR: from fasting glucose and insulin
Protocol: as §1
a) Efficacy Study in Diabetic Hamster
Diabetic hamsters were randomized to two treatment groups viz. vehicle treated and test compound treated group. Then the animals were treated with compound 7 of present invention or vehicle for 2 weeks to assess the efficacy potential of the compound. Effect of treatment on glucose excursion and insulin secretion during OGTT, change in body weight & fasting and random plasma triglycerides (TG) was evaluated during the treatment period. The effect of repeated administration of compound on energy expenditure was evaluated through monitoring oxygen consumption (VO2) over 21 hrs period by indirect calorimetry (Oxymax System, Columbus Instruments). HOMA-IR an index of insulin resistance was estimated using fasting glucose and insulin levels estimated during OGTT.
Similarly, the study was conducted using compound no 50 of the present invention for the duration of four week period in Diabetic hamsters.

[3] = target: T1, human TGR5 (Homo sapiens, UniProt Q8TDU6); test: cAMP Responsive Element (CRE)-Reporter Assay; assay type: cell-based; conditions: luciferase activity relative to vehicle control, five hours, CHO cells transfected with human TGR5 and CRE-luciferase
T1 construct: host or cells: CHO cells (ATCC)
T1 sequence (Q8TDU6 1-330): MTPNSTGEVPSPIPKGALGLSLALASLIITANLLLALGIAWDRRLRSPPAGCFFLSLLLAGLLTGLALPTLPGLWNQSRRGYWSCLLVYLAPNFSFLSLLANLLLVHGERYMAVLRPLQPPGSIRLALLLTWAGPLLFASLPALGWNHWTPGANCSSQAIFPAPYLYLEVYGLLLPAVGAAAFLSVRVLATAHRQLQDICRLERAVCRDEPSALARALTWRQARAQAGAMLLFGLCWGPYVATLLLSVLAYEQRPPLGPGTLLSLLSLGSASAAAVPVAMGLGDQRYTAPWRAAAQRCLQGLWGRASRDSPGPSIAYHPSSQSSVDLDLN
Protocol: (A) cAMP Responsive Element (CRE)-Reporter Assay:
CHO cells (ATCC) were transfected with human TGR5 (oriGene) and CRE-luciferase reporter vector. Transfected cells were treated with vehicle control or test compounds (Conc 10 μM) for five hours and then lysed. Cell lysates were monitored for luciferase acivity. Increase in luciferase activity is considered as a result of TGR5 activation. Results were expressed as fold induction as compared to vehicle control.
Results are summarized in Table 2 where, + indicates 1.5-2 fold while ++, +++, ++++ indicate 2-3 fold, 3-4 fold, and >4 fold induction respectively relative to vehicle control when tested at 10 μM concentration.

[4] = test system: Human enteroendocrine cell-line (NCI-H716); test: Measurement of Glucagon Like Peptide-1 (GLP-1) secretion; assay type: cell-based; conditions: NCI-H716 cells, one hour, with respect to vehicle control
Protocol: (C) Measurement of Glucagon Like Peptide-1 (GLP-1):
Human enteroendocrine cell-line (NCI-H716) were incubated with vehicle or test compounds for one hour. At the end of incubation period, levels of secreted GLP-1 in culture medium were measured by GLP-1 ELISA kit (Millipore). Results are summarized as fold increase in GLP secretion with respect to vehicle control in Table 4.

[5] = target: T1, human TGR5; test: cAMP Measurement Assay (Alphascreen); assay type: cell-based; conditions: cAMP levels, CHO cells transfected with human TGR5, one hour
Protocol: (B) cAMP Measurement Assay:
CHO cells (ATCC) were transfected with human TGR5 vector (oriGene). Transfected cells were treated with vehicle control or test compounds for one hour and then lysed. Levels of cAMP were measured in cell lysates employing Alphascreen cAMP assay kit (Perkin Elmer) and results were expressed EC50 values which are summarized in Table 3.

[6] = test system: Diabetic Hamster; test: Single dose efficacy on glucose tolerance (OGTT) in diabetic hamster; assay type: in vivo; conditions: Mesocricetus auratus, read-out: Decrease in AUC of glucose % change w.r.t. vehicle control group
Protocol: i) Evaluation of Single Dose Efficacy of Test Compounds on Glucose Tolerance:
Thus efficacy can be assessed through the effect of test compounds on lowering of plasma glucose during OGTT through stimulating glucose stimulated insulin secretion.
The potential of test compounds in lowering of Plasma Glucose was evaluated in Oral glucose tolerance test (OGTT) in Diabetic Hamster Model, where diabetes has been induced by administration of low dose of Streptozotocin (STZ) to the High fat diet (HFD) fed glucose intolerant animals. The diabetic hamsters show impaired glucose stimulated insulin secretion and higher plasma glucose excursions than the normal animals, which remains elevated beyond 2 hrs post glucose load. Thus the animal model can be used for evaluating the potential of test compounds to lower plasma glucose through stimulating glucose stimulated insulin secretion. On the day of study post 6 hrs of fasting, test compounds or vehicle was administered orally at dose volume of 2 ml/kg to the hamsters of the respective treatment groups. Subsequent to dosing, a pre-glucose load blood sample was taken. A glucose load of 40% solution at 5 ml/Kg dose volume was administered orally. Blood samples through retroorbital plexus were taken at 15, 30 60 & 120 min. post glucose load and plasma was separated for glucose measurement. Post glucose load percentage change in plasma glucose and AUC of % change glucose by the treatment was assessed.

[7] = 1.5 mg/kg, listed as compound no. 7, 1.5 mg/kg
[8] = 20 mg/kg, po, bid, 2 weeks, listed as compound no. 7, 20 mg/kg
[9] = compound no. 7 repeated dosing, 2 weeks
[10] = 9 mg/kg, listed as compound no. 50, 9 mg/kg
[11] = 6 mg/kg, i.p. OD, four week, listed as compound no. 50, 6 mg/kg
[12] = compound no. 50 repeated dosing, four week

Structure (SMILES): CN(C(=O)c1c(-c2ccc(F)cc2)nc2ncccn12)c1ccc(Cl)cc1 [Compound no. 7, N-(4-chlorophenyl)-2-(4-fluorophenyl)-N-methylimidazo[1,2-a]pyrimidine-3-carboxamide]
- AUC_Insulin % change during OGTT ([1]; 1.5 mg/kg): 5431.0 ± 920.9
- AUC_glucose % change during OGTT ([1]; 1.5 mg/kg): 4526.7 ± 876.8
- Fasting plasma TG ([1]; 1.5 mg/kg): 40.4 ± 2.3 mg/dL
- HOMA-IR ([1]; 1.5 mg/kg): 4.7 ± 1.68
- Oxygen consumption ([1]; 1.5 mg/kg, indirect calorimetry over 24 hrs): 51.938 ± 1.768 mL/min/kg
- Oxygen consumption ([1]; 1.5 mg/kg, indirect calorimetry over 24 hrs, listed as compound no. 7, 1.5 mg/kg): increased energy expenditure
- AUC_Insulin % change during OGTT [1, 7]: improved insulin secretion
- AUC_glucose % change during OGTT [1, 7]: reduced glucose excursion
- Fasting plasma TG [1, 7]: decreased plasma TG levels
- HOMA-IR [1, 7]: decrease in HOMA-IR
- % Change in body wt from basal ([1]; 1.5 mg/kg): −3.19 ± 1.32%
- % Change in body wt from basal [1, 7]: reduced body weight
- % Change in body wt fro basal ([2]; 20 mg/kg, po, bid, 2 weeks): −5.2 ± 1.6%
- AUC_Insulin % change during OGTT ([2]; 20 mg/kg, po, bid, 2 weeks): 2280.6 ± 428.8
- AUC_glucose % change during OGTT ([2]; 20 mg/kg, po, bid, 2 weeks): 12714.43 ± 912
- Fasting plasma TG ([2]; 20 mg/kg, po, bid, 2 weeks): 188.35 ± 3.7 mg/dL
- Random plasma T ([2]; 20 mg/kg, po, bid, 2 weeks): 344.38 ± 90.3 mg/dL
- HOMA-IR ([2]; 20 mg/kg, po, bid, 2 weeks): 15.6 ± 2.1
- HOMA-IR [2, 8]: decrease in HOMA-IR
- Oxygen consumption ([2]; 20 mg/kg, po, bid, 2 weeks, indirect calorimetry over 21 hrs): 22.551 ± 0.638 mL/min/kg
- Oxygen consumption ([2]; 20 mg/kg, po, bid, 2 weeks, indirect calorimetry over 21 hrs, listed as compound no. 7, 20 mg/kg): increased energy expenditure
- % Change in body wt fro basal [2, 8]: reduced body weight
- AUC_Insulin % change during OGTT [2, 8]: improved insulin secretion
- AUC_glucose % change during OGTT [2, 8]: reduced glucose excursion
- Fasting plasma TG [2, 8]: decreased plasma TG levels
- decrease in LDL [2, 9]: 14%
- decrease in non HDL [2, 9]: 24%
- improvement in HDL:LDL ratio [2, 9]: 24%
- increase in HDL [2, 9]: 7%
- fold induction at 10 µM [3]: > 4
- Fold increase in GLP Release [4]: 3.72 fold
- pEC50 [5]: 7.05
- inhibition in vivo at 38 mg/kg ([6]; single oral dose 38 mg/kg): 39%

Structure (SMILES): CN(C(=O)c1c(Oc2ccc(F)cc2)nc2ncccn12)c1ccc(Cl)cc1 [Compound no. 50, N-(4-chlorophenyl)-2-(4-fluorophenoxy)-N-methylimidazo[1,2-a]pyrimidine-3-carboxamide]
- AUC_Insulin % change during OGTT ([1]; 9 mg/kg): 12938.8
- AUC_glucose % change during OGTT ([1]; 9 mg/kg): 7763.5
- HOMA-IR ([1]; 9 mg/kg): 1.96
- Oxygen consumption ([1]; 9 mg/kg): 46.125 mL/min/kg
- AUC_Insulin % change during OGTT [1, 10]: improved insulin secretion
- AUC_glucose % change during OGTT [1, 10]: reduced glucose excursion
- HOMA-IR [1, 10]: decrease in HOMA-IR
- Oxygen consumption [1, 10]: increased energy expenditure
- % Change in body wt from basal ([1]; 9 mg/kg): −3.29%
- % Change in body wt from basal [1, 10]: reduced body weight
- % Change in body wt from basal ([2]; 6 mg/kg, i.p. OD, four week): −1.56%
- AUC_glucose % change during OGTT ([2]; 6 mg/kg, i.p. OD, four week): 6225.7
- Fasting plasma TG ([2]; 6 mg/kg, i.p. OD, four week): 97.8 mg/dL
- Oxygen consumption ([2]; 6 mg/kg, i.p. OD, four week): 25.0092 mL/min/kg
- % Change in body wt from basal [2, 11]: reduced body weight
- AUC_glucose % change during OGTT [2, 11]: reduced glucose excursion
- Fasting plasma TG [2, 11]: decreased plasma TG levels
- Oxygen consumption [2, 11]: increased energy expenditure
- decrease in LDL [2, 12]: 16%
- decrease in non HDL [2, 12]: 24%
- improvement in HDL:LDL ratio [2, 12]: 16%
- fold induction at 10 µM [3]: > 4
- Fold increase in GLP Release [4]: 1.74 fold
- pEC50 [5]: 6.45
- inhibition in vivo at 40 mg/kg ([6]; single oral dose 40 mg/kg): 10%
